Laboratory results published in patent publication US20140031227A1, “HERBICIDAL COMPOSITIONS COMPRISING 4-AMINO-3-CHLORO-5-FLUORO-6-(4-CHLORO-2-FLUORO-3-METHOXYPHENYL) PYRIDINE-2-CARBOXYLIC ACID OR A DERIVATIVE THEREOF AND GLYPHOSATE OR GLUFOSINATE” (DOW AGROSCIENCES LLC, priority 2012, published 2014).
Where a name gives a salt, the structure may show the parent alone.

Legend:
Type in all cases: in vivo
[1] = system: IPOHE (Ipomoea hederacea Jacq., ivyleaf morningglory); assay: Example I postemergence foliar-applied mixtures, direct seeded rice weeds, greenhouse: IPOHE; settings: glyphosate IPA salt (Rodeo) alone
Protocol: (§1) Seeds or nutlets of the desired test plant species were planted in a soil matrix prepared by mixing a loam or sandy loam soil (e.g., 28.6 percent silt, 18.8 percent clay, and 52.6 percent sand, with a pH of about 5.8 and an organic matter content of about 1.8 percent) and calcareous grit in an 80 to 20 ratio. The soil matrix was contained in plastic pots with a volume of 1 quart and a surface area of 83.6 square centimeters (cm^2). […] The plants were grown for 8-22 days in a greenhouse with an approximate 14 hr photoperiod which was maintained at about 29° C. during the day and 26° C. during the night. Nutrients (Peters Excel® 15-5-15 5-Ca 2-Mg and iron chelate) were applied in the irrigation solution as needed and water was added on a regular basis. Supplemental lighting was provided with overhead metal halide 1000-Watt lamps as necessary. The plants were employed for testing when they reached the first through fourth true leaf stage.
(§2) Treatments consisted of the acid or esters of 4-amino-3-chloro-5-fluoro-6-(4-chloro-2-fluoro-3-methoxy-phenyl)pyridine-2-carboxylic acid (Compound A), each formulated as an SC (suspension concentrate), and various herbicidal components alone and in combination. Forms of compound A were applied on an acid equivalent basis.
(§3) For treatments comprised of formulated compounds, measured amounts of compounds were placed individually in 25 mL glass vials and diluted in a volume of 1.25% (v/v) Agri-Dex® crop oil concentrated to obtain 12× stock solutions. […] Application solutions were prepared by adding an appropriate amount of each stock solution (e.g., 1 mL) and diluted to the appropriate final concentrations with the addition of 10 mL of an aqueous mixture of 1.25% (v/v) crop oil concentrate so that the final spray solutions contained 1.25+/−0.05% (v/v) crop oil concentrate.
(§4) All stock solutions and applications solutions were visually inspected for compound compatibility prior to application. Spray solutions were applied to the plant material with an overhead Mandel track sprayer equipped with a 8002E nozzles calibrated to deliver 187 L/ha over an application area of 0.503 m^2 at a spray height of 18 to 20 inches (46 to 50 cm) above average plant canopy height. Control plants were sprayed in the same manner with the solvent blank.
(§5) The treated plants and control plants were placed in a greenhouse as described above and watered by sub-irrigation to prevent wash-off of the test compounds. After approximately 3 weeks, the condition of the test plants as compared with that of the untreated plants was determined visually and scored on a scale of 0 to 100 percent where 0 corresponds to no injury or growth inhibition and 100 corresponds to complete kill.
(§6) Colby's equation was used to determine the herbicidal effects expected from the mixtures (Colby, S. R. 1967. Calculation of the synergistic and antagonistic response of herbicide combinations. Weeds 15:20-22.).

[2] = system: LEFCH (Leptochloa chinensis (L.) Nees, Chinese sprangletop); assay: Example I postemergence foliar-applied mixtures, direct seeded rice weeds, greenhouse: LEFCH
Protocol: as §1, §2, §3, §4, §5, §6

[3] = system: ECHCG (Echinochloa crusgalli (L.) Beauv., barnyardgrass); assay: Example I postemergence foliar-applied mixtures, direct seeded rice weeds, greenhouse: ECHCG; settings: for Visual Weed Control (%) - 21 DAA ECHCG Obs: glyphosate IPA salt (Glyphomax) alone
Protocol: as §1, §2, §3, §4, §5, §6

[4] = system: SCPMA (Schoenoplectus maritimus (L.) Lye or Bolboschoenus maritimus (L.) Palla, sea clubrush); assay: Example II in-water applied mixtures, transplanted paddy rice weeds, greenhouse: SCPMA; settings: glyphosate IPA salt (Rodeo) alone
Protocol: Weed seeds or nutlets of the desired test plant species were planted in puddled soil (mud) prepared by mixing a shredded, non-sterilized mineral soil (50.5 percent silt, 25.5 percent clay, and 24 percent sand, with a pH of about 7.6 and an organic matter content of about 2.9 percent) and water at a 1:1 volumetric ratio. The prepared mud was dispensed in 365 mL aliquots into 16-ounce (oz.) non-perforated plastic pots with a surface area of 86.59 square centimeters (cm^2) leaving a headspace of 3 centimeters (cm) in each pot. Mud was allowed to dry overnight prior to planting or transplanting. Rice seeds were planted in Sun Gro MetroMix® 306 planting mixture, which typically has a pH of 6.0 to 6.8 and an organic matter content of about 30 percent, in plastic plug trays. Seedlings at the second or third leaf stage of growth were transplanted into 840 mL of mud contained in 32-oz. non-perforated plastic pots with a surface area of 86.59 cm^2 4 days prior to herbicide application. The paddy was created by filling the headspace of the pots with 2.5 to 3 cm of water. […] The plants were grown for 4-22 days in a greenhouse with an approximate 14 hr photoperiod which was maintained at about 29′C during the day and 26° C. during the night. Nutrients were added as Osmocote® (19:6:12, N:P:K+minor nutrients) at 2 g per 16-oz. pot and 4 g per 32-oz. pot. Water was added on a regular basis to maintain the paddy flood, and supplemental lighting was provided with overhead metal halide 1000-Watt lamps as necessary. The plants were employed for testing when they reached the first through fourth true leaf stage.
as §2, with “(compound A)” for “(Compound A),”, “concentrate)” for “concentrate),”
For formulated compounds, a measured amount was placed in an individual 100 or 200 mL glass vial and was dissolved in a volume of 1.25% (v/v) Agri-Dex® crop oil concentrate to obtain application solutions.
Applications were made by injecting with a pipetter appropriate amounts of the application solutions, individually and sequentially, into the aqueous layer of the paddy. Control plants were treated in the same manner with the solvent blank. Applications were made so that all treated plant material received the same concentrations of acetone and crop oil concentrate.
as §5, with “water was added as needed” for “watered by sub-irrigation”, “maintain a paddy flood.” for “prevent wash-off of the test compounds.”, “weeks” for “weeks,”
as §6

[5] = system: DIGSA (Digitaria sanguinalis (L.) Scop., large crabgrass); assay: Example I postemergence foliar-applied mixtures, direct seeded rice weeds, greenhouse: DIGSA; settings: glyphosate IPA salt (Durango) alone, 377 gae/ha
Protocol: as §1, §2, §3, §4, §5, §6

[6] = system: ECHCO (Echinochloa colona (L.) Link, junglerice); assay: Example I postemergence foliar-applied mixtures, direct seeded rice weeds, greenhouse: ECHCO
Protocol: as §1, §2, §3, §4, §5, §6

[7] = glyphosate IPA salt (Durango) alone, 377 gae/ha
[8] = glyphosate IPA salt (Glyphomax) alone, 124.5 gae/ha
[9] = glyphosate IPA salt (Glyphomax) alone, 249 gae/ha
[10] = glyphosate IPA salt (Rodeo) alone, 105 gae/ha
[11] = glyphosate IPA salt (Rodeo) alone, 210 gae/ha

## O=C(O)CNCP(=O)(O)O [Glyphosate isopropylamine salt, N-(phosphonomethyl)glycine, reference compound]
[1]; 105 gae/ha
  Visual Weed Control (%) - 21 DAA IPOHE Obs: 15%
[1]; 210 gae/ha
  Visual Weed Control (%) - 21 DAA IPOHE Obs: 25%
[1]; 420 gae/ha
  Visual Weed Control (%) - 21 DAA IPOHE Obs: 55%
[2]; [7]
  Visual Weed Control (%) - 20 DAA LEFCH Obs: 88%
[2]; [8]
  Visual Weed Control (%) - 21 DAA LEFCH Obs: 0%
[2]; [9]
  Visual Weed Control (%) - 21 DAA LEFCH Obs: 45%
[2]; [10]
  Visual Weed Control (%) - 21 DAA LEFCH Obs: 25%
[2]; [11]
  Visual Weed Control (%) - 21 DAA LEFCH Obs: 75%
[2]; glyphosate IPA salt (Rodeo) alone, 420 gae/ha
  Visual Weed Control (%) - 21 DAA LEFCH Obs: 90%
[3]; [7]
  Visual Weed Control (%) - 20 DAA ECHCG Obs: 38%
[3]; 124.5 gae/ha
  Visual Weed Control (%) - 21 DAA ECHCG Obs: 0%
[3]; 249 gae/ha
  Visual Weed Control (%) - 21 DAA ECHCG Obs: 0%
[4]; 210 gae/ha
  Visual Weed Control (%) - 21 DAA SCPMA Obs: 0%
[4]; 420 gae/ha
  Visual Weed Control (%) - 21 DAA SCPMA Obs: 0%
[5]
  Visual Weed Control (%) - 20 DAA DIGSA Obs: 10%
[6]; [8]
  Visual Weed Control (%) - 21 DAA ECHCO Obs: 10%
[6]; [9]
  Visual Weed Control (%) - 21 DAA ECHCO Obs: 20%
[6]; [10]
  Visual Weed Control (%) - 21 DAA ECHCO Obs: 0%
[6]; [11]
  Visual Weed Control (%) - 21 DAA ECHCO Obs: 0%
